Results published in ChEMBL document CHEMBL1130382, “Inhibition of thyroid hormone uptake by calcium antagonists of the dihydropyridine class” (J Med Chem, 1997).

Tests used:
HepG2 [1] = experiment: Inhibitory effect on L-triiodothyronine (L-T3) uptake by human HepG2 hepatoma cells at an application dose 10E-5 M; format: functional
[2] = Partition coefficient (logP); conditions: octanol/water
HepG2 [3] = experiment: Compound tested for inhibitory effect on L-triiodothyronine (L-T3) uptake by human HepG2 hepatoma cells at an application dose 10E-5 (M); format: functional

Structure (SMILES) | I (HepG2 [1]) | logP [2] | I (HepG2 [3])
CCOC(=O)C1=C(C)NC(C)=C(C(=O)OCC)C1c1cccc(O)c1 | 21.6% | 4.03 | 
CCOC(=O)C1=C(C)N=C(C)/C(=C(/O)OCC)C1c1cccc(OC)c1 (stereo not given) | 17.5% | 3.22 | 
CCOC(=O)C1=C(C)N=C(C)/C(=C(/O)OCC)C1c1cccc(I)c1 (stereo not given) |  | 4.48 | 33.2%
CC1=C(C#N)C(c2cccc([N+](=O)[O-])c2)C(C#N)=C(C)N1 | 53.8% | 1.45 | 
CCO/C(O)=C1\C(C)=NC(C)=C(C(=O)OC)C1c1cccc(C(F)(F)F)c1 (stereo not given) | 19.6% | 3.9 | 
CCOC(=O)c1c(C)nc(C)c(C(=O)OCC)c1-c1cccc([N+](=O)[O-])c1 | 28.4% | 3.1 | 
CCOC(=O)C1=C(C)N=C(C)/C(=C(/O)OCC)C1c1cccc(C)c1 (stereo not given) | 29.7% | 3.76 | 
CCO/C(O)=C1\C(C)=NC(C)=C(C(=O)OC)C1c1ccccc1C(F)(F)F (stereo not given) | 23.1% | 3.82 | 
CCOC(=O)C1=C(C)N=C(C)/C(=C(/O)OCC)C1c1ccc(I)cc1 (stereo not given) | 26.8% | 4.7 | 
CCO/C(O)=C1\C(C)=NC(C)=C(C(=O)OC)C1c1ccccc1[N+](=O)[O-] (stereo not given) | 41.4% | 2.51 | 
CCO/C(O)=C1\C(C)=NC(C)=C(C(=O)OC)C1c1ccc([N+](=O)[O-])cc1 (stereo not given) | 85.8% | 3.6 | 
c1ccc(Nc2ccccc2)cc1 [DIPHENYLAMINE] | 20.9% | 2.94 | 
c1ccc(Oc2ccccc2)cc1 [DIPHENYLETHER] | 22% | 3.83 | 
O=C(O)c1ccccc1Nc1ccccc1 [FENAMIC ACID] | 20.5% | 3.08 | 
COC(=O)C1=C(C)NC(C)=C(C(=O)OC)C1c1ccccc1[N+](=O)[O-] [NIFEDIPINE] | 80.5% |  | 
CCOC(=O)C1=C(C)NC(C)=C(C(=O)OC)C1c1cccc([N+](=O)[O-])c1 (stereo not given) [NITRENDIPINE] | 81.8% |  | 
